According to US8691817B2, “Sulfonic amide and sulfoximine-substituted diaryl-dihydropyrimidinones and usage thereof” (Bayer Intellectual Property GmbH, priority 2009, dated 2014):
≈ marks a conversion by molar mass, not a printed value. Each block holds one compound with its values, some of them ahead of it.

Columns and labels:
rat hepatocytes = experiment: Hepatocyte assay to determine the metabolic stability; type: in vitro ADME; settings: for Fmax, maximum possible bioavailability after oral administration (well-stirred): rat
Protocol: Seven samples of the incubation solution are taken in a fixed time pattern for the […] analysis in order to determine the half-life (i.e. the degradation) of the compound in each case. Various clearance parameters (CL) and Fmax values are calculated from this half-life (see below).
The Cl and Fmax values represent a measure of the phase 1 and phase 2 metabolism of the compounds in the hepatocytes. In order to minimize the influence of the organic solvent on the enzymes in the incubation mixtures, this concentration is generally limited to 1% (acetonitrile) or 0.1% (DMSO).
A cell count for hepatocytes in the liver of 1.1*10^8 cells/g of liver is used for calculation for all species and breeds.
The calculated parameters and their meaning are: • Fmax well-stirred [%] maximum possible bioavailability after oral administration • Calculation: (1-CLblood well-stirred/QH)*100 • CLblood well-stirred [L/(h*kg)] calculated blood clearance (well-stirred model) • Calculation: (QH*CL′intrinsic)/(QH+CL′intrinsic) • CL′intrinsic [ml/(min*kg] maximum ability of the liver (of the hepatocytes) to metabolize a compound (on the assumption that the hepatic blood flow is not rate-limiting) • Calculation: CL′intrinsic, apparent*species-specific hepatocyte count [1.1* 10^8/g of liver]*species-specific liver weight [g/kg] • CL′intrinsic, apparent [ml/(min*mg)] normalizes the elimination constant by dividing it by the hepatocyte cell count x (x*10^6/ml) employed • Calculation: ke1 [1/min]/(cell count [x*10^6]/incubation volumes [ml]) • (QH=species-specific hepatic blood flow).

[1] = Determination of the solubility in PBS buffer pH 6.5; type: physicochemical; settings: 20° C.
Protocol: B-7. Determination of the Solubility Reagents Required: • PBS buffer pH 6.5: 90.00 g of NaCl p.a. […] Preparation of the Starting Solution (Original Solution):
10 μl of the original solution are transferred into a microtiter plate, and 1000 μl of PBS buffer pH 6.5 are added.
From each of the sample solutions, 100 μl of the supernatant are removed and diluted 1:5 and 1:100 with DMSO. From each dilution, a sample is transferred into a vessel suitable for HPLC analysis.
The samples are analysed by RP-HPLC. Quantification is carried out using a two-point calibration curve of the test compound in DMSO. The solubility is expressed in mg/liter. Analysis sequence: 1) calibration solution […]; 2) calibration solution 20 μg/ml; 3) sample solution 1:5; 4) sample solution 1:100.

[2] = target: T1, human neutrophil elastase (HNE) (Homo sapiens, UniProt P08246); experiment: In vitro HNE inhibition assay; type: biochemical; settings: HNE concentration of 80 pM; substrate MeOSuc-Ala-Ala-Pro-Val-AMC; 37° C., 2 hours
T1 construct: purchased Serva, Heidelberg
T1 sequence (P08246 30-267): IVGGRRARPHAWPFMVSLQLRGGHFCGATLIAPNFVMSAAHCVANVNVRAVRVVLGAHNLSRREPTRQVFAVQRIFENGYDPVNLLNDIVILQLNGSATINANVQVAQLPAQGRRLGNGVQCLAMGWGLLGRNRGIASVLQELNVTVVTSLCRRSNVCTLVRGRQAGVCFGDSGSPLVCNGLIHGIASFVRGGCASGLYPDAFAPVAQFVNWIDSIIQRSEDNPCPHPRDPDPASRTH
Protocol: The potency of the compounds of the invention is ascertained in an in vitro inhibition assay. The HNE-mediated amidolytic cleavage of a suitable peptide substrate leads in this connection to an increase in the fluorescent light. The signal intensity of the fluorescent light is directly proportional to the enzyme activity.
Enzyme (80 pM HNE; from Serva, Heidelberg) and substrate (20 μM MeOSuc-Ala-Ala-Pro-Val-AMC; from Bachem, Weil am Rhein) are incubated in an assay volume of in total 50 μl of assay buffer (0.1 M HEPES pH 7.4, 0.5 M NaCl, 0.1% w/v BSA, 1% v/v DMSO) in a 384-well microtiter plate in the presence and absence of the test substance at 37° C. for 2 hours.

CLblood, calculated blood clearance (well-stirred) (rat hepatocytes; after incubation with rat hepatocytes): 0 mL/min/kg
Solubility ([1]; 24 hours): 300 µg/mL (≈ 634 µM)
SMILES: CC1=C(C#N)[C@@H](c2ccc(C#N)cc2S(C)(=N)=O)N(C)C(=O)N1c1cccc(C(F)(F)F)c1 (mixture of isomers) [Example 38, (SS)-(4S)-4-[4-Cyano-2-(S-methylsulfonimidoyl)phenyl]-3,6-dimethyl-2-oxo-1-[3-(trifluoromethyl)phenyl]-1,2,3,4-tetrahydropyrimidine-5-carbonitrile or (RS)-(4S)-4-[4-cyano-2-(S-methylsulfonimidoyl)phenyl]-3,6-dimethyl-2-oxo-1-[3-(trifluoromethyl)phenyl]-1,2,3,4-tetrahydropyrimidine-5-carbonitrile]

IC50 [2]: 0.9 nM
CLblood, calculated blood clearance (well-stirred) (rat hepatocytes; hepatocytes): 0 mL/min/kg
Fmax, maximum possible bioavailability after oral administration (well-stirred) (rat hepatocytes): 100%
SMILES: CC1=C(C#N)[C@@H](c2ccc(C#N)cc2S(C)(=N)=O)NC(=O)N1c1cccc(C(F)(F)F)c1 (mixture of isomers) [Example 41, (SS)-(4S)-4-[4-Cyano-2-(S-methylsulfonimidoyl)phenyl]-6-methyl-2-oxo-1-[3-(trifluoromethyl)phenyl]-1,2,3,4-tetrahydropyrimidine-5-carbonitrile or (RS)-(4S)-4-[4-cyano-2-(S-methylsulfonimidoyl)phenyl]-6-methyl-2-oxo-1-[3-(trifluoromethyl)phenyl]-1,2,3,4-tetrahydropyrimidine-5-carbonitrile]

IC50 [2]: < 0.3 nM
CLblood, calculated blood clearance (well-stirred) (rat hepatocytes; hepatocytes): 31.7 mL/min/kg
Fmax, maximum possible bioavailability after oral administration (well-stirred) (rat hepatocytes): 54%
SMILES: CC1=C(C#N)[C@@H](c2ccc(C#N)cc2S(=O)(=O)NCC(N)=O)N(C)C(=O)N1c1cccc(C(F)(F)F)c1 [Example 13, N^2-[(5-Cyano-2-{(4S)-5-cyano-3,6-dimethyl-2-oxo-1-[3-(trifluoromethyl)phenyl]-1,2,3,4-tetrahydropyrimidin-4-yl}phenyl)sulfonyl]glycinamide]

IC50 [2]: 4.5 nM
SMILES: CC1=C(C#N)[C@@H](c2ccc(C#N)cc2S(=O)(=O)NCCCN2CCCC2=O)NC(=O)N1c1cccc(C(F)(F)F)c1 [Example 14]

IC50 [2]: 0.7 nM
SMILES: CC1=C(C#N)[C@@H](c2ccc(C#N)cc2S(=O)(=O)NCC2CCN(C)C2)NC(=O)N1c1cccc(C(F)(F)F)c1 (stereo partly drawn) [Example 21, 5-cyano-2-{(4S)-5-cyano-6-methyl-2-oxo-1-[3-(trifluoromethyl)phenyl]-1,2,3,4-tetrahydropyrimidin-4-yl}-N-[(1-methylpyrrolidin-3-yl)methyl]-benzenesulfonamide]

Second part, the compound before the results:

SMILES: CC1=C(C#N)[C@@H](c2ccc(C#N)cc2S(N)(=O)=O)NC(=O)N1c1cccc(C(F)(F)F)c1 [Example 1, 5-Cyano-2-{(4S)-5-cyano-6-methyl-2-oxo-1-[3-(trifluoromethyl)phenyl]-1,2,3,4-tetrahydropyrimidin-4-yl}benzenesulfonamide]
IC50 [2]: 0.4 nM
CLblood, calculated blood clearance (well-stirred) (rat hepatocytes; hepatocytes): 1.7 mL/min/kg
Fmax, maximum possible bioavailability after oral administration (well-stirred) (rat hepatocytes): 97%

SMILES: CNS(=O)(=O)c1cc(C#N)ccc1[C@H]1NC(=O)N(c2cccc(C(F)(F)F)c2)C(C)=C1C#N [Example 2, 5-Cyano-2-{(4S)-5-cyano-6-methyl-2-oxo-1-[3-(trifluoromethyl)phenyl]-1,2,3,4-tetrahydropyrimidin-4-yl}-N-methylbenzenesulfonamide]
IC50 [2]: < 0.3 nM
CLblood, calculated blood clearance (well-stirred) (rat hepatocytes; hepatocytes): 31.7 mL/min/kg
Fmax, maximum possible bioavailability after oral administration (well-stirred) (rat hepatocytes): 54%

SMILES: CC1=C(C#N)[C@@H](c2ccc(C#N)cc2S(=O)(=O)N(C)C)NC(=O)N1c1cccc(C(F)(F)F)c1 [Example 3, 5-Cyano-2-{(4S)-5-cyano-6-methyl-2-oxo-1-[3-(trifluoromethyl)phenyl]-1,2,3,4-tetrahydropyrimidin-4-yl}-N,N-dimethylbenzenesulfonamide]
IC50 [2]: < 0.3 nM

SMILES: CC1=C(C#N)[C@@H](c2ccc(C#N)cc2S(=O)(=O)N2CCOCC2)NC(=O)N1c1cccc(C(F)(F)F)c1 [Example 4, (4S)-4-[4-Cyano-2-(morpholin-4-ylsulfonyl)phenyl]-6-methyl-2-oxo-1-[3-(trifluoromethyl)phenyl]-1,2,3,4-tetrahydropyrimidine-5-carbonitrile]
IC50 [2]: < 0.3 nM

SMILES: CC1=C(C#N)[C@@H](c2ccc(C#N)cc2S(N)(=O)=O)N(C)C(=O)N1c1cccc(C(F)(F)F)c1 [Example 10, 5-Cyano-2-{(4S)-5-cyano-3,6-dimethyl-2-oxo-1-[3-(trifluoromethyl)phenyl]-1,2,3,4-tetrahydropyrimidin-4-yl}benzenesulfonamide]
IC50 [2]: < 0.3 nM

SMILES: CC1=C(C#N)[C@@H](c2ccc(C#N)cc2S(=O)(=O)NCCO)N(C)C(=O)N1c1cccc(C(F)(F)F)c1 [Example 11, 5-Cyano-2-{(4S)-5-cyano-3,6-dimethyl-2-oxo-1-[3-(trifluoromethyl)phenyl]-1,2,3,4-tetrahydropyrimidin-4-yl}-N-(2-hydroxyethyl)benzenesulfonamide]
IC50 [2]: < 0.3 nM
solubility at 24 h ([1]; aqueous buffer, kinetic from dmso stock): 300 µg/mL (≈ 577 µM)
